{
  "source": "patent US9428732B2",
  "about": "“Compositions and methods for differentiating pluripotent stem cells into primitive blood cells and uses thereof” (Primorigen Biosciences, Inc., priority 2011, dated 2016)",
  "format_in_all_cases": "cell-based, human",
  "key": {"[1]": {"system": "pluripotent stem cell differentiation cultures", "assay": "Quantitative gene expression analysis during differentiation (Day 0, 4, 8, 12, 15)", "settings": "for expression of SCL: FIG. 6M; for expression of FOXF1: FIG. 6E; for expression of FOXC1: FIG. 6F", "text": "RNA from the pluripotent stem cell differentiation cultures was harvested at multiple time points corresponding to stages of development from pluripotent stem cells to hematopoietic lineages during in vitro culture. Cells were lysed using Trizol (Life Technologies, Carlsbad Calif.), and RNA was isolated according to the manufacturer's specifications. A cDNA library was reverse transcribed by the High Capacity RNA-to-cDNA Kit from Applied Biosystems (Life Technologies, Carlsbad, Calif.). PCR products were amplified for 40 cycles using primers designed for the gene of interest.\nGene expression studies were carried out to determine expression of key genes for the major divergences in the pathway from iPS to HSC. Briefly, RNA from the differentiation cultures was harvested at multiple time points (Day 0, 4, 8, 12, 15), corresponding to stages of development during in vitro culture and differentiation of pluripotent stem cells to hematopoietic lineages using Differentiation Medium 1. Cells were lysed using Trizol (Life Technologies, Carlsbad Calif.) and RNA was isolated according to manufacturer's specifications. A cDNA library was reverse transcribed using the RNA-to-cDNA Kit from Applied Biosystems (Life Technologies, Carlscad, Calif.). PCR products were amplified using appropriate primers designed for the genes of interest for 40 cycles.\nTo understand how RA-signaling inhibition with DEAB may lead to increased output of the most primitive blood cells (phenotypic HSCs: CD45+, CD43+, CD34+, CD38−, CD90+, CD45RA−) from pluripotent stem cells without an increase in the total blood (mature cells and progenitors), we performed quantitative gene expression analyses for key development markers at various time points during the differentiation protocol. As the developmental marker genes we surveyed are not known to be direct targets of RA signaling, we can expect the marker gene expression levels to correlate to the cell numbers in culture."}, "[2]": {"system": "Pluripotent stem cells (iPS and ES)", "assay": "Effects of DEAB on blood cell phenotypes, flow cytometry at Day 16", "settings": "DEAB 10 uM vs DMSO", "description": "(§1) Cells from the differentiation cultures were collected at time points indicated and washed in phosphate-buffered saline (PBS) supplemented with 2% FBS. Adherent cells were individualized using TrypLE (Life Technologies, Carlsbad Calif.), passed through a 27.5-gauge needle and filtered through a 40-70 μm cell strainer (BD Falcon, San Diego, Calif., www.bdbiosciences.com). Cells were treated with 7-aminoactinomycin D (7AAD) before analysis, and positive cells were gated out of results. Cells were stained with fluorescence-conjugated antibodies for the hematopoietic stem and progenitor cell markers CD45, CD43, CD34, CD38, CD90; CD45RA. Cells were analyzed on a FACS Canto (BD, Franklin Lakes, N.J., www.bd.com).\nCells were counted using the FACS cell counter feature (BD) or by cytometer using a bright-field microscope to obtain viable cell numbers. The total numbers of cells of each subpopulation were calculated by multiplying the number of cells by the proportion of cells of that lineage as determined by flow cytometry. Statistical analyses of data points and error bars of this study show mean and standard deviation, with statistical significance assessed by the Student's t-test.\nFrom Example 1, DEAB was selected to move forward into an experiment further establishing the phenotypes of blood cells emerging from the differentiation in order to identify at what stage of differentiation DEAB may exert its effects. Pluripotent stem cells (iPS and ES) were grown and induced to produce embryoid bodies on Day 8 as described. The EBs were then exposed to Differentiation Medium 1 for a total of 8 days with partial medium changes made every other day as described. Cells were harvested on Day 16 and washed in phosphate-buffered saline (PBS) supplemented with 2% FBS. Adherent cells were individualized using TrypLE (Life Technologies, Carlsbad Calif.), passed through a 27.5-gauge needle and filtered through a 40-70 μm cell strainer (BD Falcon, San Diego, Calif., www.bdbiosciences.com). Cells were treated with 7-aminoactinomycin D before analysis and positive cells were gated out of results. Cells were stained with fluorescence conjugated antibodies for the hematopoietic stem and progenitor cell markers CD45, CD43, CD34, CD38, CD90, CD45RA. Cells were analyzed on an FACS Canto (BD, Franklin Lakes, N.J., www.bd.com)."}, "ES and iPS cells": {"system": "ES and iPS cells", "assay": "Small molecule screen, FACS of cells differentiated from pluripotent stem cells", "settings": "relative to DMSO control, DEAB 10 μM, rapamycin 0.1 μM", "description": "as §1\nA small molecule screen was performed to identify compounds that improve the output of hematopoietic progenitor cells (HPCs; CD45+, CD43+, CD34+) and phenotypic hematopoietic stem cells (HSCs; CD45+, CD43+, CD34+, CD38−, CD90+, CD45RA−) differentiated from pluripotent stem cells. Molecules targeting pathways known or suspected of being important in hematopoiesis were screened. […] Cells were analyzed using fluorescence activated cell sorting (FACS; FIGS. 3A, 3B, and 3C) and CFU-GEMM assays (FIG. 3D). […]"}, "[3]": {"settings": "DEAB vs DMSO, early time points"}},
  "data": [
    {"compound": "CCN(CC)c1ccc(C=O)cc1", "note": "[DEAB, 4-diethylaminobenzaldehyde]", "values": [
      {"measurement": "expression of SCL", "setting": "[1]; DEAB compared to DMSO, Day 15", "value": "increased SCL expression"},
      {"measurement": "expression of SCL", "setting": "[1]; DEAB vs DMSO, Day 8-12", "value": "Increased SCL expression with DMSO compared to DEAB"},
      {"measurement": "expression of FOXF1", "setting": "[1]; DEAB vs DMSO, Day 8 onward", "value": "comparable"},
      {"measurement": "expression of RUNX1 (definitive hematopoietic cell marker)", "setting": "[1]; DEAB vs DMSO, Day 12-15, FIG. 6I", "value": "increased expression"},
      {"measurement": "expression of cardiogenic lateral plate mesoderm marker NKX2.5", "setting": "[1]; DEAB vs DMSO, Day 12 onward, FIG. 6G", "value": "reduced expression"},
      {"measurement": "expression of FOXC1", "setting": "[1]; DEAB vs DMSO, Days 6-12", "value": "significantly reduced"},
      {"measurement": "increase in expression of primitive streak mesoderm marker MIXL1", "setting": "[1]; DEAB vs DMSO, FIG. 6C", "value": 20, "unit": "%"},
      {"measurement": "expression of endoderm specific marker SOX17", "setting": "[1]; DEAB vs DMSO, FIG. 6D", "value": "significantly reduced"},
      {"measurement": "CD31 expression (primitive wave endothelial cells)", "setting": "[1]; DEAB vs DMSO, FIG. 6L", "value": "reduced"},
      {"measurement": "expression of ectoderm and neuroectoderm marker PAX6", "setting": "[1]; DEAB vs DMSO, early time point, FIG. 6A", "value": "reduced expression"},
      {"measurement": "expression of FOXF1", "setting": "[1]; [3]", "value": "elevated levels"},
      {"measurement": "expression of FOXC1", "setting": "[1]; [3]", "value": "elevated levels"},
      {"measurement": "expression of mesoderm marker Brachyury", "setting": "[1]; DEAB vs DMSO, first days of differentiation, FIG. 6B", "value": "significantly increased"},
      {"measurement": "expression of PAX6", "setting": "[1]; DEAB vs DMSO, later time points, FIG. 6A", "value": "later equalized"},
      {"measurement": "expression of FLK1", "setting": "[1]; DEAB, Day 4", "value": "high levels"},
      {"measurement": "expression of RARa", "setting": "[1]; DEAB, Day 8, FIG. 6N", "value": "reduced levels"},
      {"measurement": "expression of RARb", "setting": "[1]; DEAB, Day 8, FIG. 6O", "value": "reduced levels"},
      {"measurement": "expression of APLNR", "setting": "[1]; DEAB, Day 12, FIG. 6H", "value": "expressed highly"},
      {"measurement": "expression of PDGFRA", "setting": "[1]; DEAB, Day 12, FIG. 6J", "value": "downregulated"},
      {"measurement": "expression of FLK1", "setting": "[1]; DEAB, Days 12-15", "value": "increased"},
      {"measurement": "expression of RA target CD38 by PCR", "setting": "[1]; DEAB, FIG. 6P", "value": "reduction"},
      {"measurement": "blood cells (CD45+, CD43+)", "setting": "[2]; Day 16", "value": "modestly higher values"},
      {"measurement": "hematopoietic progenitor cells (CD45+, CD43+, CD34+)", "setting": "[2]; Day 16", "value": "modestly higher values"},
      {"measurement": "population of cells exhibiting a hematopoietic stem cell phenotype (CD45+, CD43+, CD34+, CD38−, CD90+, CD45RA−)", "setting": "[2]; Day 16", "value": "substantial improvement"},
      {"measurement": "total viable cells", "setting": "[2]; Day 16", "value": "modestly higher values"},
      {"measurement": "increase in generation of the phenotypic stem cell phenotype", "setting": "[2]; FIGS. 4B and 4D", "value": "over 3 fold"},
      {"measurement": "output of total blood cells (CD45+, CD43+)", "setting": "ES and iPS cells; FIG. 3C", "value": "increased"},
      {"measurement": "output of HSCs (CD45+, CD43+, CD34+, CD38−, CD90+, CD45RA−)", "setting": "ES and iPS cells; FIGS. 3A and B", "value": "increased"}
    ]}
  ]
}
